Values joined by “and” are separate entries in the source; they are usually repeats but may differ in a detail not shown here. Equal values may be shown once. Inconclusive results are not listed.
Test system: BDF1 mice, M5076 sarcoma s.c., survival/tumor T/C
Assay: NCI In Vivo Anticancer Drug Screen. Data for tumor model Sarcoma M5076 (subcutaneous) in B6D2F1 (BDF1) mice
Procedure: The antitumor activity of compounds was measured in mice bearing transplantable tumors. Survival or tumor size were measured and the results are expressed as the measurement made in the treated group (T) divided by the measurement made in the vehicle treated control group (C). The tumor model used in this assay is Sarcoma M5076 (subcutaneous) in B6D2F1 (BDF1) mice

Structure (SMILES): Cc1ccc(/C=C2\SC(=S)N(C3CC3)C2=O)cc1
- T/C (endpoint: median survival time, dose: 50.0 mg/kg/injection, schedule: Q01DX009 (ip), vehicle: saline with Tween-80, higher = longer survival): 103 % of control
- T/C (endpoint: median survival time, dose: 100.0 mg/kg/injection, schedule: Q01DX009 (ip), vehicle: saline with Tween-80, higher = longer survival): 94 % of control
- T/C (endpoint: median survival time, dose: 200.0 mg/kg/injection, schedule: Q01DX009 (ip), vehicle: saline with Tween-80, higher = longer survival): 98 % of control
- T/C (endpoint: median tumor weight (est.), dose: 50.0 mg/kg/injection, schedule: Q01DX009 (ip), vehicle: saline with Tween-80, higher = larger tumour): 105 % of control
- T/C (endpoint: median tumor weight (est.), dose: 100.0 mg/kg/injection, schedule: Q01DX009 (ip), vehicle: saline with Tween-80, higher = larger tumour): 80 % of control
- T/C (endpoint: median tumor weight (est.), dose: 200.0 mg/kg/injection, schedule: Q01DX009 (ip), vehicle: saline with Tween-80, higher = larger tumour): 93 % of control

Structure (SMILES): COc1cc2cc3c4cc(OC)c(OC)cc4cc[n+]3c(C)c2cc1OC (tested in a mixture with another compound)
- T/C (endpoint: mean tumor weight, dose: 37.5 mg/kg/injection, schedule: Q02DX011 (ip), vehicle: saline, higher = larger tumour): 64 % of control
- T/C (endpoint: mean tumor weight, dose: 75.0 mg/kg/injection, schedule: Q02DX011 (ip), vehicle: saline, higher = larger tumour): 45 % of control
- T/C (endpoint: mean tumor weight, dose: 150.0 mg/kg/injection, schedule: Q02DX011 (ip), vehicle: saline, higher = larger tumour): 13 % of control

Structure (SMILES): COc1cccc2c1C(=O)c1c(O)c3c(c(O)c1C2=O)C[C@@](O)(C(=O)CO)C[C@@H]3OC1CC(N)C(O)C(C)O1 (some centres not stated)
- T/C (endpoint: mean tumor weight, dose: 1.0 mg/kg/injection, schedule: Q02DX011 (ip), vehicle: saline, higher = larger tumour): 81 % of control
- T/C (endpoint: mean tumor weight, dose: 2.0 mg/kg/injection, schedule: Q02DX011 (ip), vehicle: saline, higher = larger tumour): 39 % of control
- T/C (endpoint: median survival time, dose: 0.25 mg/kg/injection, schedule: Q02DX009 (iv), vehicle: saline, higher = longer survival): 97 % of control
- T/C (endpoint: median survival time, dose: 0.5 mg/kg/injection, schedule: Q02DX009 (iv), vehicle: saline, higher = longer survival): 94 % of control
- T/C (endpoint: median survival time, dose: 0.5 mg/kg/injection, schedule: Q04DX009 (ip), vehicle: saline, higher = longer survival): 114 % of control
- T/C (endpoint: median survival time, dose: 1.0 mg/kg/injection, schedule: Q02DX009 (iv), vehicle: saline, higher = longer survival): 100 % of control
- T/C (endpoint: median survival time, dose: 1.0 mg/kg/injection, schedule: Q02DX011 (ip), vehicle: water, higher = longer survival): 100 % of control
- T/C (endpoint: median survival time, dose: 1.0 mg/kg/injection, schedule: Q04DX009 (ip), vehicle: saline, higher = longer survival): 111 % of control
- T/C (endpoint: median survival time, dose: 1.3 mg/kg/injection, schedule: Q04DX004 (iv), vehicle: saline, higher = longer survival): 100 % of control
- T/C (endpoint: median survival time, dose: 2.0 mg/kg/injection, schedule: Q02DX009 (iv), vehicle: saline, higher = longer survival): 97 % of control
- T/C (endpoint: median survival time, dose: 2.0 mg/kg/injection, schedule: Q02DX011 (ip), vehicle: water, higher = longer survival): 94 % of control
- T/C (endpoint: median survival time, dose: 2.0 mg/kg/injection, schedule: Q04DX009 (ip), vehicle: saline, higher = longer survival): 111 % of control
- T/C (endpoint: median survival time, dose: 2.16 mg/kg/injection, schedule: Q04DX004 (ip), vehicle: saline, higher = longer survival): 90 % of control
- T/C (endpoint: median survival time, dose: 2.16 mg/kg/injection, schedule: Q04DX004 (iv), vehicle: saline, higher = longer survival): 112 % of control
- T/C (endpoint: median survival time, dose: 3.0 mg/kg/injection, schedule: Q02DX011 (ip), vehicle: water, higher = longer survival): 96 % of control
- T/C (endpoint: median survival time, dose: 3.0 mg/kg/injection, schedule: Q04DX003 (iv), vehicle: saline, higher = longer survival): 108 % of control
- T/C (endpoint: median survival time, dose: 3.6 mg/kg/injection, schedule: Q04DX004 (ip), vehicle: saline, higher = longer survival): 103 % of control
- T/C (endpoint: median survival time, dose: 3.6 mg/kg/injection, schedule: Q04DX004 (iv), vehicle: saline, higher = longer survival): 93 % of control
- T/C (endpoint: median survival time, dose: 4.0 mg/kg/injection, schedule: Q02DX011 (ip), vehicle: water, higher = longer survival): 38 % of control
- T/C (endpoint: median survival time, dose: 4.0 mg/kg/injection, schedule: Q04DX009 (ip), vehicle: saline, higher = longer survival): 108 % of control
- T/C (endpoint: median survival time, dose: 4.5 mg/kg/injection, schedule: Q04DX003 (iv), vehicle: saline, higher = longer survival): 124 % of control
- T/C (endpoint: median tumor weight (est.), dose: 1.0 mg/kg/injection, schedule: Q02DX011 (ip), vehicle: saline, higher = larger tumour): 76 % of control
- T/C (endpoint: median tumor weight (est.), dose: 2.0 mg/kg/injection, schedule: Q02DX011 (ip), vehicle: saline, higher = larger tumour): 26 % of control

Structure (SMILES): Cc1[nH]c(=O)[nH]c(=O)c1N(CCF)CCCl
- T/C (endpoint: median survival time, dose: 4.0 mg/kg/injection, schedule: Q01DX009 (ip), vehicle: saline with Tween-80, higher = longer survival): 104 % of control
- T/C (endpoint: median survival time, dose: 8.0 mg/kg/injection, schedule: Q01DX009 (ip), vehicle: saline with Tween-80, higher = longer survival): 120 % of control
- T/C (endpoint: median tumor weight (est.), dose: 4.0 mg/kg/injection, schedule: Q01DX009 (ip), vehicle: saline with Tween-80, higher = larger tumour): 101 % of control
- T/C (endpoint: median tumor weight (est.), dose: 8.0 mg/kg/injection, schedule: Q01DX009 (ip), vehicle: saline with Tween-80, higher = larger tumour): 47 % of control and 57 % of control
- T/C (endpoint: median tumor weight (est.), dose: 16.0 mg/kg/injection, schedule: Q01DX009 (ip), vehicle: saline with Tween-80, higher = larger tumour): 8 % of control and 17 % of control
